Assay results taken from patent US20030166715A1, “Use of vitaletheine modulators in the prophylaxis and treatment of disease” (priority 1990, published 2003).

Columns and labels:
[1] = tested on: Cloudman S-91 murine melanoma cells; test: Treatment of murine Cloudman S-91 melanoma in mice, tumor volume; format: in vivo, mouse
Protocol: This regimen is predicated on the observation that certain enzymes thought to be responsive to these compounds, and which may pay a role in the reported results, are induced 48 hours after chemical stimulation. […] Data presented is calculated from measured tumor diameters, including mice with no tumor. Error bars indicate standard error of the mean.
Cloudman S-91 murine melanoma cells (American Type Culture Collection #53.1, Clone M-3) from a (C X DBA)F1 male mouse were grown in 75 ml flasks (Corning Glass Works, Corning, N.Y., USA) containing Ham's F12 medium supplemented with 15% fetal bovine serum, penicillin (100 U/ml), and streptomycin (100 μg/ml), all commercially available from Sigma Chemical Company, St. Louis, Mo., USA. Cultures were incubated at 37° C. under 5.5% carbon dioxide initially at 6×10^6 cells per ml for two days, with a medium change after one day. Cultures were then trypsinized, split into two fresh flasks at one half the cell density, above, and maintained for one week prior to injection in female (DBA X BALB c) mice (CD2F1/Hsd from Harlan Sprague Dawley, Inc., Indianapolis, Ind., USA). For inoculation, cells were first trypsinized, washed 3 times in phosphate buffered saline, and diluted to 1×10^5 cells/100 μl phosphate buffered saline prior to subcutaneous injection in the flank.
The compounds were dissolved in water, filtered through an appropriate sterilizing filter (0.22 μm non-pyrogenic, μ Star LB™ from Costar®, Cambridge, Mass., USA), diluted to the desired concentration in sterile, physiological saline (0.1 ml), and injected intraperitoneally with a 27 gauge, ⅜ inch allergy syringe (Becton Dickinson, Rutherford, N.J., USA); by gently lifting the skin on the abdomen of supine mice and injecting horizontally, puncture of peritoneal organs is avoided, thereby minimizing trauma to the mice.

human BFU-E = test: Modulation of erythropoiesis: colony formation from human BFU-E in plasma clot culture; format: cell-based; settings: 18 h initial incubation with vitalethine; compared with levels initially containing erythropoietin (FIG. 3a)
Text: (§1) Colony formation from the early murine progenitors not exposed to vitalethine, and either initially exposed to or initially deprived of erythropoietin are represented by upper and lower triangles, respectively. […] Bars are standard error of the mean.
(§2) Human bone marrow cells were obtained as surplus from experiments performed on material aspirated from normal volunteers with IRB approval and informed written consent. Peripheral blood cells were obtained from commercially purchased buffy coats or surgical waste (umbilical cord blood). Mouse bone marrow was flushed from femurs and obtained as surplus from experiments performed on C57B1/6 mice with animal committee approval. Human light density cells were separated by centrifugation over Ficoll-daitrizoate (SG 1.075) and depleted of adherent cells by incubation on serum coated plastic. Mouse cells were used without further fractionation. […] One unit per ml of erythropoietin and medium without added factors served as positive and negative controls. Initial incubations were carried out for 18 hours at 37° . […]

CFU-E and BFU-E = test: Modulation of erythropoiesis: stimulation of colony formation synergistically with erythropoietin (FIG. 3a/3b); format: cell-based
Text: as §1, §2

CFU-E progenitors = test: Modulation of erythropoiesis: colony formation from CFU-E progenitors in plasma clot culture; format: cell-based, murine; settings: depending upon concentration (FIG. 3a)
Text: as §1, §2

With `O=C(O)NCCC(=O)NCCSSCCNC(=O)CCNC(=O)O` [vitalethine, N,N′-(dithiodi-2,1-ethanediyl)-bis-(3-carboxyamino-propan-amide)] the average tumor volume ([1]; 100 pg/kg mouse (FIG. 1b)) was “diminishes average tumor volume substantially”, the “diminution of tumor volume compared to saline controls” value ([1]; 10 femtogram/kg mouse intraperitoneally three times per week, beginning second day after tumor inoculation) was ~70% and the average tumor volume ([1]; 10 fg/kg mouse (FIG. 1a)) was “diminishes average tumor volume substantially”. For the same compound, the “colony formation from human BFU-E initially deprived of erythropoietin” value (human BFU-E) was “increased”, the “concentration necessary for a similar response (stimulation of colony formation)” value (CFU-E and BFU-E) was “about 10 pg/ml” and the “erythropoiesis from the CFU-E progenitors” value (CFU-E progenitors) was “either enhances or minimizes erythropoiesis”.
